Experimental data from US6509355B1, “Treatment of disorders of the outer retina” (Alcon Laboratories, Inc., priority 1998, dated 2003).

Columns and labels:
[1] = target: NR1A/NR2B subtype of the polyamine binding site of the NMDA receptor (Homo sapiens, UniProt Q05586+Q13224); conditions: cited from earlier work
[2] = system: photo-oxidative induced retinopathy; experiment: Photo-oxidative induced retinopathy: 6-hour blue light exposure, ERG after 5-day recovery
Excerpt: Photic retinopathy results from excessive excitation of the retinal pigment epithelium and neuroretina by absorption of visible or near ultraviolet radiation. Lesion severity is dependent upon wavelength, irradiance, exposure duration, species, ocular pigmentation, and age. Damage may result from peroxidation of cellular membranes, inactivation of mitochondrial enzymes such as cytochrome oxidase, or increased intracellular calcium. Cellular damage resulting from photo-oxidative stress leads to cell death by apoptosis, (Shahinfar, S., Edward. D. P. and Tso, M. O. (1991), A pathologic study of photoreceptor cell death in retinal photic injury. Current Eye Research, 10:47-59: Abler, A. S., Chang, C. J., Fu, J. and Tso, M. O. (1994), Photic injury triggers apoptosis of photoreceptor cells. Investigative Ophthalmology & Visual Science, 35(Suppl):1517). Oxidative stress induced apoptosis has been implicated as a cause of many ocular pathologies, including, iatrogenic retinopathy, macular degeneration, retinitis pigmentosa and other forms of heredodegenerative disease, ischemic retinopathy, retinal tears, retinal detachment, glaucoma and retinal neovascularization (Chang, C. J., Lai, W. W., Edward, D. P. and Tso, M. O. (1995), Apoptotic photoreceptor cell death after traumatic retinal detachment in humans, Archives of Ophthalmology, 113:880-886: Portera-Cailliau, C., Sung, C. H., Nathans, J. and Adler, R. (1994), Apoptotic photoreceptor cell death in mouse models of retinitis pigmentosa, Proceedings of National Academy of Science (U.S.A.), 91:974-978; Buchi, E. R. (1992), Cell death in the rat retina after a pressure-induced ischaemia-reperfusion insult: an electron microscopic study. I. Ganglion cell layer and inner nuclear layer, Experimental Eye Research, 55:605-613; Quigley, H. A., Nickells. R. W., Kerrigan, L. A., Pease, M. E., Thibault, D. J. and Zack, D. J. (1995), Retinal ganglion cell death in experimental glaucoma and after axotomy occurs by apoptosis, Investigative Ophthalmology & Visual Science, 36:774-786). […] Alan R. Liss, Inc., New York; Collier, R., W. Waldron and Zigman, S. (1989), Temporal sequence of changes to the gray squirrel retina after near-UV exposure, Investigative Ophthalmology & Visual Science, 30:631-637), non-human primates (Tso, M. O. M. (1973), Photic maculopathy in rhesus monkey. A light and electron microscopic study. Investigative Ophthalmology & Visual Science, 12:17-34; Ham, W. T., Jr., Ruffolo, J. J., Jr., Mueller, H. A. and Guerry, D., III. (1980), The nature of retinal radiation damage: dependence on wavelength, power level and exposure time, Vision Research, 20:1105-1111; Sperling, H. G., Johnson, C. and Harwerth, R. S. (1980), Differential spectral photic damage to primate cones, Vision Research, 20:1117-1125: Sykes, S. M., Robison, W. G., Jr., Waxler, M. and Kuwabara, T. (1981), Damage to the monkey retina by broad spectrum fluorescent light, Investigative Ophthalmology & Visual Science, 20:425-434; Lawwill, T. (1982), Three major pathologic processes caused by light in the primate retina: A search for mechanisms, Transactions of the American Ophthalmology Society, 80:517-577), and man (Marshall, J. Hamilton, A. M. and Bird, A. C. (1975), Histopathology of ruby and argon laser lesions in monkey and human retina, British Journal of Ophthalmology, 59:610-630; Green, W. R. and Robertson, D. M. (1991), Pathologic findings of photic retinopathy in the human eye. American Journal of Ophthalmology, 112:520-27).

[3] = system: laser induced thermal burns to the retina; conditions: cited from earlier work
retinal laser burn = experiment: Retinal laser burn spread damage: argon laser, lesion area in outer nuclear layer after 48 hours; format: in vivo, Pigmented Long Evans rats
Excerpt: The eye is exposed to high-energy laser radiation during the performance of retinal photocoagulation therapy (grid, focal and […]) or during photodynamic therapy. This type of therapy is often employed during treatment of choroidal neovascularization, proliferative stages of diabetic retinopathy, retinopathy of prematurity, or to repair retinal holes or […]. Associated with this laser therapy is tissue destruction leading to vision deterioration. […] It is believed that this vision loss results directly from the expansion of the laser-induced lesion to surrounding normal neurosensory retina and RPE. Singlet oxygen and other reactive oxygen species as well as cytokines are generated in the area of the laser burn and thought to migrate laterally to cause collateral retinal damage. Retinal morphology changes in this area are similar to changes in our photo-oxidative retinopathy paradigm. […] Pigmented Long Evans rats were randomly assigned to control, vehicle or drug dosed groups. […] After a 48-hour recovery period, eyes were fixed, dehydrated, and embedded in plastic resin. Histological assessment of laser burns was performed by flatmounting the retina and sectioning the tissue in a plane tangential to the nerve fiber layer. Using this technique, the lesion area in the outer nuclear layer could be calculated using an image analysis system. […] The laser bum center was marked by; complete closure of all capillaries, arterioles and venuoles; perforation of Bruch's membrane; pyknosis and necrosis of all photoreceptor nuclei; and destruction of inner and outer segments. Spread of the lesion into peripheral retina consisted of shortening of outer segments, inner segment swelling, clumping of melanin granules in the RPE and choroid, and vacuolization of the RPE.

NMDA receptor = experiment: Binding affinity to the NMDA receptor; conditions: order of magnitude only
[4] = system: light induced functional or morphological changes; experiment: Light damage paradigms (light induced damage paradigm); conditions: in vivo
Method: Eliprodil was evaluated in our light induced damage paradigm, a model of retinal degenerative diseases such as retinitis pigmentosa and age-related macular degeneration.

[5] = system: mechanical stress induced ischemia reperfusion; conditions: Arch Ophthal 1993; cited from earlier work

Chain of NR1A/NR2B subtype of the polyamine binding site of the NMDA receptor (Q13224 27-1484, other chains not shown): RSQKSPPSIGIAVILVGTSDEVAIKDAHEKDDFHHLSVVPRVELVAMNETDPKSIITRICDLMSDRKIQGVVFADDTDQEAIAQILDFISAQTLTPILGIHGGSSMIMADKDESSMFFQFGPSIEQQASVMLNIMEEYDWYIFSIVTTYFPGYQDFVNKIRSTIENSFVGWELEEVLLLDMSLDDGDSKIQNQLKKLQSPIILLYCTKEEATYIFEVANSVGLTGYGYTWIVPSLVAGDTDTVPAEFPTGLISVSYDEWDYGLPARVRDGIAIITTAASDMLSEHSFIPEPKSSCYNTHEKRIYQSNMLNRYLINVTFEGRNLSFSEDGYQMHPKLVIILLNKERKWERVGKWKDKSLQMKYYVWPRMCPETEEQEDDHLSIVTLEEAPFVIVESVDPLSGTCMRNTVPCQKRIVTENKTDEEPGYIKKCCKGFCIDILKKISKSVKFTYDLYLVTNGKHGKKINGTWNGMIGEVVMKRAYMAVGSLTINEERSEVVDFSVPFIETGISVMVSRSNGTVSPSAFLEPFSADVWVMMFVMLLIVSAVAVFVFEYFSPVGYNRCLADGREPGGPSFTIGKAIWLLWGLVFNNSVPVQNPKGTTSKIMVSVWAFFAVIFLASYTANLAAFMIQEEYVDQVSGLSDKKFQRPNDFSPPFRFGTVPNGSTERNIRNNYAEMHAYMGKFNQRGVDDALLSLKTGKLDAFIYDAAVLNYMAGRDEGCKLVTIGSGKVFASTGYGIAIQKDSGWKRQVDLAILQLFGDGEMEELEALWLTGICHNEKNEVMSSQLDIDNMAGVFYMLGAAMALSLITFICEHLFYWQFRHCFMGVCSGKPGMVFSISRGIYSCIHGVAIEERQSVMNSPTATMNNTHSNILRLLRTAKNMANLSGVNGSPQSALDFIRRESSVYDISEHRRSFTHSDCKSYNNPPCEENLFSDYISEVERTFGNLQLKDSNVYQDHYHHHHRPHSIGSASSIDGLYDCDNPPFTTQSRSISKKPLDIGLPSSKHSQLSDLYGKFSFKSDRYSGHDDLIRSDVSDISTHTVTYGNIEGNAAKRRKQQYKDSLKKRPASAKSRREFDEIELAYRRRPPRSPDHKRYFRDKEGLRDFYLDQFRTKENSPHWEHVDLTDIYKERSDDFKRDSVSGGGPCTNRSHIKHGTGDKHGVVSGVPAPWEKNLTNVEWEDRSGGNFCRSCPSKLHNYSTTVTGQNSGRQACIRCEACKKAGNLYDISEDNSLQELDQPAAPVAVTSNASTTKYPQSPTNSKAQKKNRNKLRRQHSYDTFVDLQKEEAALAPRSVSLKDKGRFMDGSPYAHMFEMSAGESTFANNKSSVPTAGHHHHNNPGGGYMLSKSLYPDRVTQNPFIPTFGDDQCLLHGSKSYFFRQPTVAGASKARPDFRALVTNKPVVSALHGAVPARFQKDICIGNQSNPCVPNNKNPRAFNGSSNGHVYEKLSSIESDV

Compound: C[C@@H]([C@@H](O)c1ccc(O)cc1)N1CCC(O)(c2ccccc2)CC1 [CP-101,606]
- subtype preference of NMDA receptor block [1]: preferentially block

Compound: C[C@]12N[C@H](Cc3ccccc31)c1ccccc12 [MK-801, reference compound]
- dose dependence of protection of outer and inner retina function ([2]; Experiment 1): dose-dependent protection
- protection of outer and inner retina function against light induced retinal degeneration ([2]; Experiment 1, 2 mg/kg IP, vs vehicle): No significant protection
- protection of outer and inner retina function against light induced retinal degeneration ([2]; Experiment 1, 10 mg/kg IP, vs vehicle): No significant protection
- ERG responses compared with control (normal) ([2]; Experiment 1, 20 mg/kg IP): not significantly different than control
- protection of outer and inner retina function against light induced retinal degeneration ([2]; Experiment 1, 20 mg/kg IP at 48, 24, 0 h before light, vs vehicle): significant protection
- maximum a-wave response amplitude ([2]; Experiment 1, 20 mg/kg IP, controls 734.05 μV): 537.93 μV
- maximum b-wave response amplitude ([2]; Experiment 1, 20 mg/kg IP, controls 1807 μV): 1449.77 μV
- rescue of RPE and photoreceptor cells (summary) ([2]; summary of Experiments 1 and 2): Complete protection
- prevention of photoreceptor loss ([3]; 3 and 20 days post laser exposure): did not significantly prevent
- preventing the spread of laser induced thermal burns to the retina ([3]; at 60 days): minimally effective

Compound: O[C@@H](CN1CCC(Cc2ccc(F)cc2)CC1)c1ccc(Cl)cc1 [R-eliprodil]
- potency relative to eliprodil (racemic) ([2]; rat, in vivo): two-fold less potent
- Maximum a-wave response, % of normal ([2]; rat, in vivo, ip, 20 mg/kg): 38%
- Maximum b-wave response, % of normal ([2]; rat, in vivo, ip, 20 mg/kg): 36%
- protection of outer and inner retina function against light induced retinal degeneration ([2]; rat, in vivo, ip, 20 mg/kg): No significant protection
- Response amplitudes, fold higher than vehicle dosed rats ([2]; rat, in vivo, ip, 40 mg/kg): about 2 fold
- maximum a-wave response amplitude ([2]; rat, in vivo, ip, 40 mg/kg): 397.25 μV
- maximum b-wave response amplitude ([2]; rat, in vivo, ip, 40 mg/kg): 812.87 μV
- protection of outer and inner retina function against light induced retinal degeneration ([2]; rat, in vivo, ip, 40 mg/kg): significant protection
- response amplitudes, % of normal ([2]; rat, in vivo, ip, 40 mg/kg): ~50%
- Maximum a- and b-wave responses, % of normal ([2]; rat, in vivo, ip, 80 mg/kg): approximately 40%
- protection of outer and inner retina function against light induced retinal degeneration ([2]; rat, in vivo, ip, 80 mg/kg): No significant retinal protection
- lesion area smaller than in vehicle dosed rats (retinal laser burn; 20 mg/kg IP): 16%
- significance of lesion area difference from vehicle (retinal laser burn; 20 mg/kg IP): not significantly different
- Laser burn lesion area (retinal laser burn; 40 mg/kg IP): 36,016 μ^2
- lesion area smaller than in vehicle dosed rats (retinal laser burn; 40 mg/kg IP): 28%
- significance of lesion area difference from vehicle (retinal laser burn; 40 mg/kg IP): significantly diflerent
- reduction of collateral retinal damage around the laser burn (summary) (retinal laser burn): significant reduction
- binding affinity to the NMDA receptor (NMDA receptor): nanomolar

Compound: O[C@H](CN1CCC(Cc2ccc(F)cc2)CC1)c1ccc(Cl)cc1 [S-eliprodil]
- potency rank as retinoprotective agent in the series ([2]; rat, in vivo): most potent
- potency relative to eliprodil (racemic) ([2]; rat, in vivo): two-fold more potent
- difference in ERG response amplitude compared to vehicle dosed rats ([2]; rat, in vivo, ip, 5 mg/kg): No significant difference
- Maximum a-wave response, % of normal ([2]; rat, in vivo, ip, 10 mg/kg): 64%
- Maximum b-wave response, % of normal ([2]; rat, in vivo, ip, 10 mg/kg): 76%
- protection of outer and inner retina function against light induced retinal degeneration ([2]; rat, in vivo, ip, 10 mg/kg): Significant protection
- Response amplitudes, fold higher than vehicle dosed rats ([2]; rat, in vivo, ip, 20 mg/kg): about 2 fold
- maximum a-wave response amplitude ([2]; rat, in vivo, ip, 20 mg/kg): 418.04 μV
- maximum b-wave response amplitude ([2]; rat, in vivo, ip, 20 mg/kg): 1015.95 μV
- protection of outer and inner retina function against light induced retinal degeneration ([2]; rat, in vivo, ip, 20 mg/kg): Significant protection
- response amplitudes, % of normal ([2]; rat, in vivo, ip, 20 mg/kg): approximately 62%
- Laser burn lesion area (retinal laser burn; 20 mg/kg IP): 43,098.5 μ^2
- lesion area smaller than in vehicle dosed rats (retinal laser burn; 20 mg/kg IP): 15%
- significance of lesion area difference from vehicle (retinal laser burn; 20 mg/kg IP): not significantly different
- reduction of collateral retinal damage around the laser burn (summary) (retinal laser burn): devoid of significant efficacy
- binding affinity to the NMDA receptor (NMDA receptor): millimolar

Compound: Cc1c(C)c2c(c(C)c1O)CC[C@@](C)(CCC[C@H](C)CCC[C@H](C)CCCC(C)C)O2 [alpha-tocopherol]
- preventing light induced functional or morphological changes [4]: ineffective

Compound: N=C(N)NC(=O)c1nc(Cl)c(N)nc1N [amiloride]
- preventing light induced functional or morphological changes [4]: no effect

Compound: COC(=O)C1=C(C)NC(C)=C(C(=O)O[C@H]2CCN(Cc3ccccc3)C2)[C@H]1c1cccc([N+](=O)[O-])c1 [barnidipine]
- preventing light induced functional or morphological changes [4]: no effect

Compound: COc1ccc2c(c1)[C@]13CCCC[C@@H]1[C@H](C2)N(C)CC3 [dextromethorphan]
- protection of inner retina function and RPE function [5]: moderately protected
- protective effect for outer retina function [5]: no significant protective effect

Compound: Fc1ccc(C(c2ccc(F)cc2)N2CCN(C/C=C/c3ccccc3)CC2)cc1 [flunarizine]
- preventing light induced functional or morphological changes [4]: moderately effective

Compound: CC(C(O)c1ccc(O)cc1)N1CCC(Cc2ccccc2)CC1 (centres unmarked) [ifenprodil]
- subtype preference of NMDA receptor block [1]: preferentially block

Compound: Cc1cccc(C)c1NC(=O)CN1CCN(CCCC(c2ccc(F)cc2)c2ccc(F)cc2)CC1 [lidoflazine]
- preventing light induced functional or morphological changes [4]: no effect

Compound: CC12CC3CC(C)(C1)CC(N)(C3)C2 [memantine, reference compound]
- dose dependence of protection of outer and inner retina function ([2]; rat, in vivo): dose-dependent protection
- protection of outer and inner retina function against light induced retinal degeneration ([2]; rat, in vivo, ip, 2 mg/kg): no significant protection
- ERG responses compared with control (normal) ([2]; rat, in vivo, ip, 20 mg/kg): significantly lower than normal
- protection of outer and inner retina function against light induced retinal degeneration ([2]; rat, in vivo, ip, 20 mg/kg): significant protection

Compound: COCCOC(=O)C1=C(C)NC(C)=C(C(=O)OC(C)C)C1c1cccc([N+](=O)[O-])c1 (centres unmarked) [nimodipine]
- preventing light induced functional or morphological changes [4]: no effect

Compound: prenylamine lactate
- preventing light induced functional or morphological changes [4]: no effect
